From PubChem BioAssay (NCI) come the findings set out here.

The structures appear in SMILES notation.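 Cultured in 96-well plates, cells were exposed to test compound for 48 hours across five concentrations. TGI marks complete inhibition of growth.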

Common to all, as to assay: NCI tumour cell line growth inhibition, 48 h
In assay [1] the test system is HOP-92 NSCLC.
In assay [2] the test system is NCI-H460 lung.
Assay [3] deals with HOP-62 NSCLC.
For assay [4], the system named is A498 renal.
The test system of assay [5] is ACHN renal.
In assay [6] the test system is NCI-H23 lung.
Assay [7] concerns CAKI-1 renal.
The test system of assay [8] is T-47D breast.
Assay [9] relates to COLO 205 colon.
The subject of assay [10] is SF-539 CNS.
Assay [11] has as its system U251 CNS.
Assay [12] has as its system KM12 colon.
Assay [13] deals with SW-620 colon.
The test system of assay [14] is BT-549 breast.
Assay [15] has as its system HL-60(TB) leukemia.
In assay [16] the test system is TK-10 renal.
In assay [17] the test system is 786-0 renal.
For assay [18], the system named is HCT-15 colon.
Assay [19] has as its system SR leukemia.

As to `CNC(=O)CCCNC(=O)CCCC(=O)OC`, the TGI in assay [1], in assay [2], in [3], in [4], in assay [5] and in assay [6] was more than 100 µM in each case. Besides, the TGI in [7], in assay [8], in [9], in [10], in assay [11] and in assay [12] was more than 100 µM each time. Further, the TGI in assay [13], in [14], in assay [15], in assay [16], in assay [17] and in assay [18] was more than 100 µM throughout.

With `c1cc(CN2CCNCCNCCNCC2)cc(CN2CCNCCNCCNCC2)c1`, the TGI in [2], in [3], in [5], in assay [6], in assay [8] and in assay [9] was more than 100 µM in each case. Also, the TGI in assay [10], in [11], in assay [12], in [13], in [14] and in assay [16] was more than 100 µM throughout. The TGI in assay [17] and in assay [19] was more than 100 µM throughout.

Take `C/C(N)=N/OCc1nc(C)no1`: the TGI in assay [2], in [3], in assay [5], in assay [6], in [7] and in [8] was more than 100 µM throughout. Also, the TGI in assay [9], in [10], in assay [11], in assay [12], in assay [13] and in assay [14] was more than 100 µM in each case. For the same compound, the TGI in assay [15], in assay [16], in assay [17], in assay [19] and in assay [18] was more than 100 µM in each case.

Take `CCC(C)N1CN(c2ccccc2)C2(CCN(CCCSc3ccc(F)cc3)CC2)C1=O` (stereo not drawn): the TGI in assay [3] was 4.74 µM; in assay [5], 9.76 µM; in assay [6], 16 µM; in [7] it was 11 µM; in assay [8], 10.2 µM; in assay [9], 3.47 µM. Further, the TGI in assay [10] worked out at 6.32 µM; in assay [11], 13.7 µM; in assay [12] it was 15.2 µM; in assay [13], 17.3 µM; in [14], 6.99 µM; in [15] it was 17.8 µM. Further, the TGI in assay [16] was determined as 11.2 µM; in assay [17] it was 7.88 µM; in [19], 46.7 µM; in assay [18], 4.2 µM.

Take `C[C@@]1(OC(=O)c2cc([N+](=O)[O-])cc([N+](=O)[O-])c2)C[C@@H]2CCCC[C@@H]21`: the TGI in assay [2], in assay [3], in assay [5], in assay [6], in assay [7] and in assay [8] was more than 100 µM throughout. Besides, the TGI in assay [9], in assay [10], in assay [11], in assay [12], in assay [13] and in assay [14] was more than 100 µM throughout. Further, the TGI in assay [15], in [16], in assay [17], in assay [19] and in [18] was more than 100 µM throughout.

On to `Cc1nc(N(C(C)C)C(C)C)c(C(C)C)o1`, for which the TGI in assay [1], in assay [2], in [3], in assay [4], in assay [5] and in assay [6] was more than 100 µM in each case. For the same compound, the TGI in assay [7], in assay [8], in assay [9], in [10], in assay [11] and in [12] was more than 100 µM in each case. Also, the TGI in [13], in assay [14], in assay [15], in assay [16], in assay [17] and in [18] was more than 100 µM throughout.

On to `CCOP(=O)(OCC)C(Cc1ccc(Cl)cc1)NS(=O)(=O)c1ccc(C)cc1` (stereo not drawn), for which the TGI in assay [1], in assay [2], in assay [3], in assay [4], in assay [5] and in assay [6] was more than 100 µM each time. For the same compound, the TGI in assay [7], in assay [8], in assay [9], in assay [10], in assay [11] and in [12] was more than 100 µM throughout. The TGI in assay [13], in assay [14], in assay [15], in [16], in [17] and in assay [18] was more than 100 µM each time.
